Laboratory results published in US20210023074A1, “TREATMENT OF DEMYELINATING DISEASES” (Victoria Link Ltd., priority 2018, published 2021).
Read-outs that look alike come from different tables or passages of the source.

Assays:
[1] = tested on: spinal cord of EAE mice; experiment: Luxol fast blue histology of spinal cord, % demyelination in EAE mice; assay type: in vivo, C57BL/6 mice; settings: 0.01 mg/kg i.p. daily from disease onset, chronic phase
Protocol: Experimental detail: EAE was induced in female C57BL/6 mice as described in Example 1. On the day of disease onset (score >1), mice were started on daily treatment with vehicle only or nalmefene at 0.01 mg/kg by i.p. injection. During the chronic phase (>24 days post treatment initiation), mice were culled, perfused with 4% paraformaldehyde and spinal cords were processed for histology. […] Shown are the means and standard error of individual values from vehicle (n=7) or 0.01 (n=3) nalmefene-treated EAE mice. *p<0.05 by one-way ANOVA with Holm-Sidak's multiple comparison test.

[2] = tested on: Alcohol consumption (Wistar and AA rat); settings: cited from earlier work
[3] = tested on: cuprizone-induced demyelination in mice; experiment: Cuprizone demyelination disease model, TEM of corpus callosum, g-ratio; assay type: in vivo, C57BL/6 mice; settings: 0.3% cuprizone diet, 0.01 mg/kg i.p. daily from day 28, day 70
Protocol: Experimental details: A demyelinating disease state was induced in female C57BL/6 mice (8-14 weeks old and between 17-23 grams in weight). The mice were fed cuprizone-containing chow (0.3% (w/w) cuprizone) or chow only (normal controls) for 35 days, at which point they were switched back to standard chow. At day 28, mice were started on daily treatment with vehicle only (DMSO: Tween 80: Saline) or nalmefene at 0.01 mg/kg by i.p. injection. On day 70, mice were culled and brain tissue were processed for transmission electron microscopy (TEM). Mice were weighed daily and the % weight change calculated.
Experimental details: A demyelinating disease state was induced in female C57BL/6 mice as described in FIG. 19A. FIGS. 19A-C show representative Transmission Electron Microscopy (TEM) images of the corpus callosum of mice (A) fed normal diet and (B-C) fed 0.3% cuprizone to induce demyelination. Following the time course described in FIG. 19A, cuprizone fed mice were administered (B) vehicle only treatment, and (C) nalmefene (0.01 mg/kg/i.p.) and then sacrificed on experimental day 70. Scale bars represent 2000 nm.
Mice fed a normal diet have a mean g-ratio of 0.78±0.09 in contrast to mice fed 0.3% cuprizone that have a significant increase in g-ratio of 0.84±0.1 corresponding to the decreased myelin thickness (####p<0.0001). […] Data represents measurements of 5 TEM images of the corpus callosum from 2-3 mice per treatment group and g-ratios calculated (a measure of myelin thickness) using Image J software. Analysis was performed by individuals blinded to treatment groups. (n=200-400 axons per treatment group). All data analysed by one-way ANOVA followed by Turkeys multiple comparisons test.

[4] = tested on: experimental autoimmune encephalomyelitis (EAE) mice; experiment: EAE model of MS, disease score, treatment from day of disease onset (score >1); assay type: in vivo, C57BL/6 mice
Protocol: Experimental detail: EAE was induced in female C57BL/6 mice as described in Example 1. On the day of disease onset (score >1, dotted line), mice were started on daily treatment with vehicle only (Veh) or nalmefene (NaIM) at 0.1, 0.03, 0.01, or 0.003 mg/kg by i.p. injection. […]
(§1) Experimental detail: EAE was induced in female C57BL/6 mice as described in Example 1. On the day of disease onset (score >1, dotted line), mice were treated with vehicle only (daily), nalmefene (0.01 mg/kg by i.p. injection daily), the KOR antagonist norBNI (10 mg/kg by i.p. injection weekly), both nalmefene and norBNI, or the MOR antagonist BFNA (10 mg/kg by i.p. injection weekly).
as §1, with “weekly). The peak disease score during the first EAE episode was recorded, and mice were considered recovered if they received a score <0.5 by day 23 post treatment initiation.” for “weekly).”
Experimental detail: EAE was induced in female C57BL/6 mice as described in Example 1.

[5] = tested on: infiltrating immune cells (CD45high) in brain of EAE mice; experiment: Immune cell infiltration into the brain of EAE mice (flow cytometry); assay type: in vivo, C57BL/6 mice
Protocol: On day 17, mice were started on daily treatment with vehicle only (Veh) or nalmefene (NaIM) at 0.1 or 0.03 mg/kg by i.p. injection. On day 45 after immunization to induce EAE, mice were culled and immune cells isolated from the brains. Isolation was by Percoll gradient as described in White et al. 2018. Scientific Reports. 8:259. Once isolated, cells were stained with fluorescently labelled antibodies to identify specific immune cell types and analysed by flow cytometry. All infiltrating immune cells were identified by CD45^high expression; CD4 T cells were identified as CD45^highCD4^+, and macrophages as CD45^highCD11b^+Gr-1^−. The relative number of cells is expressed as a ratio to microglia (MG), a brain resident immune cell identified as CD45^mediumCD11b^+. ***p<0.001, **p<0.01, and *p<0.05 by one-way ANOVA with Dunnett's multiple comparison test.
Experimental detail: EAE was induced in female C57BL/6 mice as described in Example 1. […] Once isolated, cells were stained with fluorescently labelled antibodies to identify specific immune cell types and analysed by flow cytometry. […] The relative number of cells is expressed as a ratio to microglia (MG), a brain resident immune cell identified as CD45^mediumCD11b+. ****p<0.0001 and **p<0.01 by one-way ANOVA with Holm-Sidak's multiple comparison test compared to vehicle.

[6] = Alcohol consumption (AA rat), PO
[7] = 0.01 mg/kg i.p. daily from disease onset
[8] = 0.003-0.1 mg/kg i.p. daily from disease onset

C=C1CC[C@@]2(O)[C@H]3Cc4ccc(O)c5c4[C@@]2(CCN3CC2CC2)[C@H]1O5 [nalmefene, (4R,4aS,7aS,12bS)-3-(cyclopropylmethyl)-7-methylidene-2,4,5,6,7a,13-hexahydro-1H-4,12-methanobenzofuro[3,2-e]isoquinoline-4a,9-diol]
% demyelination of spinal cord (luxol fast blue) [1]: significant reduction demyelination | ED50 [2, 6]: 16.1 μg/kq | Inhibition (%) [2, 6]: 23% | Inhibition (%) ([2]; Alcohol consumption (Wistar and AA rat), SC, 4 days): 73% | Inhibition (%) ([2]; Alcohol consumption (Wistar and AA rat), SC, 26 days): 67% | Inhibition (%) ([2]; Alcohol consumption (Wistar rat), SC, 6 days): 75% | In vivo efficacy ED50 ([2]; SC administration, rat): 0.2 to 0.4 mg/kg | axonal-myelin structure and remyelination (TEM) [3]: more normal axonal-myelin structure and organisation, and increased remyelination | g-ratio (measure of myelin thickness), corpus callosum [3]: 0.791±0.01 | g-ratio compared to vehicle [3]: significantly lower g-ratio compared to vehicle only treated | disease score (recovery from paralysis) [4, 7]: recovery from paralysis, which is complete | peak disease score during first EAE episode [4, 7]: modest but significant effect | percentage of mice recovered (score <0.5 by day 23 post treatment initiation) [4, 7]: all of the mice recover | number of days in recovery [4, 8]: enables a sustained functional recovery | percentage of mice recovered (score <0.5 by day 23 post treatment initiation) [4, 8]: enables full functional recovery | dose showing the most rapid recovery ([4]; i.p. daily from disease onset, replicated in 6 independent experiments): 0.01 mg/kg | disease score ([4]; nalmefene 0.01 mg/kg i.p. daily in the presence of norBNI 10 mg/kg i.p. weekly): effective at reducing disease independently of the KOR | number of days in recovery (sustained recovery) ([4]; nalmefene 0.01 mg/kg i.p. daily, clemastine fumerate 10 mg/kg i.p.): sustained recovery | disease score (functional recovery), comparison nalmefene vs clemastine ([4]; nalmefene 0.01 mg/kg i.p. daily, clemastine fumerate 10 mg/kg i.p., from disease onset): almost complete recovery from paralysis | number of infiltrating immune cells in brain (ratio to microglia) ([5]; 0.03 mg/kg i.p. daily from day 17, day 45): significantly reduced the number of infiltrating immune cells | number of infiltrating immune cells in brain (ratio to microglia) ([5]; 0.03 mg/kg i.p. daily from disease onset, chronic phase (>24 days)): significantly reduced the number of infiltrating immune cells
